The record followed here is patent US20250099486A1, “WOUND HEALING MEDICAMENT” (The University of Sheffield, priority 2017, published 2025).

Series [1] can be described thus: E2 and 2dDR release from PHBV scaffolds in PBS. Type of series: physicochemical. The following applies: by 7 days. As for the experimental part: 10% (w/w) PHBV solution loaded was prepared prior to electrospinning. 1 g of PHBV granules (Goodfellow, London, UK) were dissolved in 1 g of methanol (Fisher Scientific, Massachusetts, USA) and 8 g of DCM (Fisher Scientific, Massachusetts, USA) in a fume hood. Four 10% PHBV solutions were prepared prior to addition of substances. Finally, 25 mg E2, 50 mg of E2, 250 mg of 2dDR and 500 mg of 2dDR were then added to each solution per 1 g of PHBV. The mixtures were magnetically stirred overnight.
Scaffolds were cut into pieces so to fit into an 6-well plate, weighed and submerged in 4 ml of PBS. The E2 and 2dDR concentrations released from each group (25 mg E2, 50 mg E2, 250 mg 2dDR, 500 mg 2dDR) were measured […] using a UV-VIS spectrophotometer (Thermo Fischer Evolution 220, Massachusetts, USA) at 238 nm for 2dDR and 220 nm for E2. Absorbance values were converted into concentrations using a standard curve of known concentrations of E2 and 2dDR.

For series [2], the system named is CAM. The series can be described thus: Ex-ovo CAM assay, direct application of substances. Type of series: in vivo, chicken (Gallus domesticus). Here is the method:
(§1) All CAM experiments were carried out according to the Home Office, UK guidelines. Fertilised chicken eggs (Gallus domesticus) were purchased from Henry Stewart & Co. (MedEggs, Norwich, UK). The eggs were carefully wiped with 20% industrial methylated spirit (IMS) solution using hand paper towels in order to remove dirt and feathers from the shell. The eggs were then incubated at 37.5° C. until embryonic development day (EDD) 3, lying horizontally in an humidified egg incubator (RCOM King SURO, P&T Poultry, Powys, Wales).
(§2) On EDD3, the upper surface of the eggs were marked with a felt pen. The eggs were held horizontally (with the marked surface on top) and cracked on the edge of a 1000 ml glass beaker and kept close to the bottom surface of petri dishes. The embryos were then transferred gently into sterile petri dishes and kept in a humidified incubator (Binder, Tuttlingen, Germany) at 38° C.
Plastic rings (˜6.5 mm in diameter) were used as a reservoir for substances and a marker for the implantation area, were placed on the CAM, and the substances were applied as 20 μl volume onto the CAM twice a day to give a […] between EDD7 and EDD11. Images of the rings were acquired using a digital microscope at EDD11, and then 20% lens culinaris agglutinin (LCA) (Vector Laboratories, Peterborough, UK) was injected into the circulation for labelling the intravascular endothelial cells using 30G needles under a dissection microscope (Wild Heerbrugg, Heerbrugg, Switzerland). CAMs were then removed and fixed in 3.7% formaldehyde solution. Embryos were sacrificed at the end of EDD11. Fixed CAM samples were then imaged under a confocal microscope (Zeiss LSM 510 Meta, Jena, Germany) for investigating the effect of substances on the microvascular structure of the CAMs.
Blood vessels were quantified by segmentation of the images [C. Roma-Rodrigues, A. Heuer-Jungemann, A. R. Fernandes, A. G. Kanaras, P. V. Baptista, Peptide-coated gold nanoparticles for modulation of angiogenesis in vivo, IntJ Nanomedicine. 11 (2016) 2633-2639. doi: 10.2147/IJN.S108661] so as to include all discernible vessels and then counting the branch points and calculating average vessel lengths [D. Ribatti, B. Nico, A. Vacca, M. Presta, The gelatin sponge-chorioallantoic membrane assay, Nat Protoc. 1 (2006) 85-91. doi: 10.1038/nprot.2006.13, P. Brooks, A. P. Montgomery, D. Cheresh, Use of the 10-Day-Old Chick Embryo Model for Studying Angiogenesis, Integrin Protoc. 129 (1999) 257-269. doi: 10.1385/1-59259-249-X: 257] via multiple image processing steps. Firstly, the internal area of the ring was cropped, and the red, green and blue channels were split using Adobe Photoshop CS6 (ADOBE Systems Inc., San Jose, California, USA). The green channel was then imported to ImageJ (Wayne Rasband, National Institutes of Health, USA) for further analysis including unsharp mask filtering, enhancing the local contrast, noise removal and segmentation. Finally, the number of branch points was quantified using quantification software (AngioTool, National Cancer Institute, USA) (FIG. 14A) and average blood vessel lengths were calculated by using binary image histograms with known pixel/mm ratios in ImageJ (Wayne Rasband, National Institutes of Health, USA).
The percentage vascular area (VA %) of the microvasculature of CAMs were quantified using confocal images of rhodamine labelled lectin injected CAM samples as shown in FIG. 14B. To do this, images were imported to ImageJ (Wayne Rasband, National Institutes of Health, USA) and converted to binary images after filtering and smoothing processes prior to quantification. VA % was calculated using the histogram list of black and white areas in the image.
All chemicals were purchased from Sigma Aldrich unless indicated otherwise. […]

The test system of series [3] is CAM. The series can be described thus: Ex-ovo CAM assay, implantation of E2 and 2dDR releasing PHBV scaffolds. Particulars: for mean vessel count: control 23.1 (±1.24). The format is in vivo, chicken (Gallus domesticus). Here is the method: as §1, §2
Scaffolds were cut into 5.5 mm diameter circles using a laser cutting machine (Epilog Laser Cutter, Clevedon, UK) and sterilised under UV light for 1 hour prior to implantation. Two circular scaffolds were placed on CAM at EDD8. Images of the scaffolds were acquired using a digital microscope at EDD 12 and EDD14. Microinjection of rhodamine labelled lectin into the circulation was performed, CAMs were removed and fixed in 3.7% formaldehyde solution. Embryos were then sacrificed at the end of EDD14. Angiogenesis was quantified by counting all blood vessels that converged towards the graft.
Haematoxylin and Eosin (H&E) staining was performed on cell impregnated scaffolds by modifiying a standard protocol. Briefly, fixed samples were embedded in optimal cutting temperature OCT and frozen in liquid nitrogen for 3 minutes. Sections were cut 8-10 μm thick using a cryostat (Leica Biosystems Nussloch, Germany) at −20° C. Sections were then stained with haematoxylin for 90 seconds and eosin for 5 minutes respectively. Finally H&E images were acquired under a light microscope (Motic DM-B1, Xiamen, China). The total number of blood vessels adjacent to the scaffolds were quantified by counting blood vessels in H&E sections [A. Minajeva, M. Kase, M. Saretok, A. Adamson-Raieste, S. Kase, K. Niinepuu, M Vardja, T. Asser, J. Jaal, Impact of Blood Vessel Quantity and Vascular Expression of CD133 and ICAM-1 on Survival of Glioblastoma Patients, Neurosci J. 2017 (2017) 8 pages] Briefly, all discernible blood vessels adjacent to the scaffolds were counted by two independent researchers using two independent microscopes at 10× magnification from the total of six different slides for each group and six different area of interest from each slide.

For the compound `O=CC[C@H](O)[C@H](O)CO` [2-deoxy-D-ribose], the “release from the scaffolds, of the amount present in the polymer solution” value in series [1] (250 mg 2dDR per 1 g PHBV scaffold) is given as 81.3%; in series [1] (500 mg 2dDR per 1 g PHBV scaffold), 86.5%. For the same compound, the “increase of number of branch points” value worked out at 1.3 times in the series with CAM [2] (2dDR 20 μg/day) and 1.4 times in the series with CAM [2] (2dDR 200 μg/day). Also, the “percentage vascular area (VA %) of microvasculature” value with CAM [2] (2dDR 200 μg/day, over 4 days, control 55.3%±3%) is reported as 71.7%±3%. For the same compound, the “angiogenic response (average vessel length) compared to control” value in the series on CAM [2] (2dDR 1000 μg/day) is recorded as “no significant difference”. The “increase of average vessel length” value with CAM [2] (both 2dDR 20 μg/day and 200 μg/day) stood at 1.2 times. Further, the mean vessel count in the series on CAM [3] (250 mg 2dDR loaded PHBV scaffolds) is given as 48.6 (±1.02); in the series with CAM [3] (500 mg 2dDR loaded PHBV scaffolds), 37.1 (±1.37). For the same compound, the “mean number of blood vessels adjacent to the scaffolds (H&E sections)” value in the series with CAM [3] (all concentrations, compared with controls and CAM only groups) is given as “significantly increased”. For the same compound, the “number of discernible blood vessels growing towards the scaffolds in comparison with plain PHBV scaffolds” value in the series on CAM [3] (all groups of releasing PHBV scaffolds) was “at least doubled”.
